Key:
[1] = Liquid; for mass density: 298.15 K, 101.33 kPa; for Normal boiling temperature: Ebulliometric method (Recirculating still)
[2] = refractive index (Na D-line) (dimensionless); details: 298.15 K; 101.33 kPa; Liquid; Standard Abbe refractometry
[3] = refractive index (Na D-line) (dimensionless); xn = mol fraction of the nth substance listed; details: 298.15 K, 101 kPa, Liquid, Standard Abbe refractometry
[4] = xn = mol fraction of the nth substance listed; details: 298.15 K, 101 kPa, Liquid

CCC(C)CO (stereo unspecified) [2-methyl-1-butanol]
Details | Normal boiling temperature [°C] | mass density [kg/m3] | refractive index
[1] | 128.78 | 814.87 | –
[2] | – | – | 1.40872

CCC(C)CO (stereo unspecified) [2-methyl-1-butanol] + CC(C)CO
Details | mass density, [4] [kg/m3] | refractive index, [3]
x2 = 0.051 | 814.19 | 1.40802
x2 = 0.101 | 813.53 | 1.40742
x2 = 0.151 | 812.85 | 1.40674
x2 = 0.2 | 812.17 | 1.40606
x2 = 0.25 | 811.49 | 1.40538
x2 = 0.3 | 810.75 | 1.40466
x2 = 0.35 | 810.03 | 1.40397
x2 = 0.401 | 809.29 | 1.40328
x2 = 0.45 | 808.55 | 1.40252
x2 = 0.5 | 807.79 | 1.40178
x2 = 0.549 | 807.02 | 1.40107
x2 = 0.599 | 806.25 | 1.40029
x2 = 0.65 | 805.45 | 1.39946
x2 = 0.701 | 804.63 | 1.39866
x2 = 0.749 | 803.86 | 1.3979
x2 = 0.8 | 803 | 1.39706
x2 = 0.85 | 802.17 | 1.3962
x2 = 0.899 | 801.17 | 1.39533
x2 = 0.95 | 800.1 | 1.3945

CC(C)CO [2-methyl-1-propanol]
Details | Normal boiling temperature [°C] | mass density [kg/m3] | refractive index
[1] | 108 | 797.84 | –
[2] | – | – | 1.3937

CC(C)CO [2-methyl-1-propanol] + CCCCCO
Details | mass density, [4] [kg/m3] | refractive index, [3]
x1 = 0.05 | 810.3 | 1.4071
x1 = 0.1 | 809.7 | 1.4065
x1 = 0.15 | 809.09 | 1.40588
x1 = 0.2 | 808.51 | 1.40524
x1 = 0.249 | 807.94 | 1.4046
x1 = 0.299 | 807.34 | 1.40394
x1 = 0.35 | 806.75 | 1.40326
x1 = 0.4 | 806.13 | 1.40259
x1 = 0.45 | 805.53 | 1.40193
x1 = 0.499 | 804.9 | 1.40124
x1 = 0.549 | 804.29 | 1.40055
x1 = 0.6 | 803.64 | 1.39983
x1 = 0.65 | 803.01 | 1.3991
x1 = 0.699 | 802.41 | 1.39834
x1 = 0.75 | 801.73 | 1.39758
x1 = 0.8 | 801.07 | 1.39683
x1 = 0.85 | 800.39 | 1.39604
x1 = 0.9 | 799.67 | 1.39524
x1 = 0.95 | 798.84 | 1.39447

CC(C)CCO [3-methylbutan-1-ol]
Details | Normal boiling temperature [°C] | mass density [kg/m3] | refractive index
[1] | 131.12 | 806.78 | –
[2] | – | – | 1.40515

CC(C)CCO [3-methylbutan-1-ol] + CC(C)CO
Details | mass density, [4] [kg/m3] | refractive index, [3]
x2 = 0.051 | 805.95 | 1.40469
x2 = 0.099 | 805.61 | 1.40418
x2 = 0.15 | 805.25 | 1.40371
x2 = 0.199 | 804.88 | 1.40318
x2 = 0.254 | 804.48 | 1.4026
x2 = 0.3 | 804.15 | 1.40212
x2 = 0.35 | 803.77 | 1.40161
x2 = 0.4 | 803.39 | 1.40109
x2 = 0.445 | 803.05 | 1.4006
x2 = 0.5 | 802.62 | 1.39997
x2 = 0.549 | 802.23 | 1.3994
x2 = 0.6 | 801.83 | 1.39879
x2 = 0.65 | 801.42 | 1.39821
x2 = 0.7 | 800.64 | 1.39764
x2 = 0.751 | 800.19 | 1.39701
x2 = 0.799 | 799.74 | 1.39636
x2 = 0.849 | 799.27 | 1.39567
x2 = 0.899 | 798.8 | 1.395
x2 = 0.95 | 798.31 | 1.39435

CCCCCO [pentan-1-ol]
Details | Normal boiling temperature [°C] | mass density [kg/m3] | refractive index
[1] | 137.70 | 810.96 | –
[2] | – | – | 1.4077

— the NIST ThermoML archive (doi:10.1021/je060238o)
